{"source": "patent US20230340440A1", "about": "“GENETIC MANIPULATION METHOD IN BACTERIA” (University of Washington, priority 2022, published 2023)", "format_in_all_cases": "cell-based, P. putida", "key": {"J3-BBa_J23117-mvaES": {"tested_on": "J3-BBa_J23117-mvaES", "assay": "mevalonate pathway activation by CRISPRa, GC-MS", "details": "13-mvaES (pBBR1-GmR); relative to off-target scRNA; FIG. 7B", "experimental": "For mevalonate production experiments, the GC-MS method was adapted from prior methods (Pfleger et al., 2007. Microbial sensors for small molecules: Development of a mevalonate biosensor. Metab. Eng. 9, 30-38). Single colonies from LB plates were inoculated in 500 µL of EZ-RDM (Teknova) supplemented with the appropriate antibiotics and grown in 96-deep-well plates at 30° C. with shaking overnight at 225 rpm. Overnight cultures were subcultured by 1:100 dilution into 3 mL of EZ-RDM media with 1% glucose as the carbon source, supplemented with the appropriate antibiotics, and shaken at 225 rpm for 72 hours at 30° C. After 72 hours, 560 µL of cell suspension was acidified with 140 µL of 0.5 M HCl and vortexed. 700 µL ethyl acetate was added and samples were then vortexed again vigorously for 3 minutes and centrifuged at maximum speed in a benchtop centrifuge (15,000 rcf) for 10 min. […] The temperature cycle started at 80° C. and was followed by a gradient of 20° C./min to 260° C., a second gradient of 40° C./min to 300° C., and a hold at 300° C. for 2 min. m/z = 71, the second most abundant peak corresponding to mevalonolactone, was used for quantitation (Pfleger et al., 2007. Microbial sensors for small molecules: Development of a mevalonate biosensor. Metab. Eng. 9, 30-38). […] The calculated concentration was adjusted by the addition of HCl. […]"}, "J3 promoter": {"tested_on": "J3 promoter", "assay": "CRISPRa reporter gene activation, J3-BBa_J23117-mRFP", "details": "for activation of mRFP: FIG. 4", "experimental": "Fluorescence measurements of reporter gene expression were carried out either by flow cytometry or plate reader. Single colonies from LB plates were inoculated in 500 µL of EZ-RDM (Teknova) supplemented with the appropriate antibiotics and grown in 96-deep-well plates at 30° C. with shaking overnight 225 rpm. For small-molecule induction, overnight cultures were diluted 100-fold into a new culture with appropriate antibiotics and inducers, then shaken overnight at 30° C., 225 rpm. For flow cytometry, overnight cultures were diluted 1:50 in Dulbecco’s phosphate-buffered saline (PBS) and analyzed on a MACSQuant VYB flow cytometer with the MACSQuantify 2.8 software (Miltenyi Biotec) using the methods and instruments settings as described (Dong et al., 2018. Synthetic CRISPR-Cas gene activators for transcriptional reprogramming in bacteria. Nat Commun 9, 2489). For plate reader measurements, 150 µL of overnight culture were transferred into a flat, clear-bottomed black 96-well plate. OD600 and fluorescence values were measured in a Biotek Synergy HTX plate reader and analyzed using the BioTek Gen5 2.07.17 software. For mRFP1 detection, the excitation wavelength was 540 nm and emission wavelength was 600 nm. For sfGFP detection, the excitation wavelength was 485 nm and the emission wavelength was 528 nm. Data were plotted using Prism (GraphPad).\nNext, the 20 bp target sequence that is recognized by the scRNA was examined. The experiments described above were performed with the J1 promoter, which contains an array of 20 base target sites. An alternative promoter, termed J3, that has a different set of 20 base target sites was tested. […] Compared to the J1 promoter, where a 4-fold activation (J106 target site) was observed, the fold-activation with the J3 promoter increased to 34-fold (J306 target site) (FIG. 2D). For both J1 and J3, the CRISPRa-induced expression levels were similar. The large difference in fold-activation results from an unexpected difference in basal expression levels. The basal expression of J3-mRFP is 11-fold lower than that of J1-mRFP, which leads to much higher fold-activation. […]\nWith optimized expression levels and a delivery strategy for the CRISPRa system in P. putida in place, whether CRISPRa and CRISPRi can be used together to activate and repress multiple genes was tested. […] A dual scRNA/sgRNA cassette was inserted in this plasmid with a J306 scRNA for mRFP activation and an sgRNA that targets within the sfGFP open reading frame (ORF) for repression. […]"}, "J3-GTPCH, J3-PTPS, J3-SR": {"tested_on": "J3-GTPCH, J3-PTPS, J3-SR", "assay": "biopterin pathway activation by CRISPRa, HPLC-MS", "details": "J3-SR (pBBR1-GmR), relative to off-target scRNA, FIG. 6D"}}, "data": [{"substance": "J306: scRNA, SEQ ID NO: 95, target TTGTGTCCAGAACGCTCCGT, J3 and J1(306) promoters, template strand, 81 to TSS (chemistry not given here)", "values": [{"measurement": "Fold-change, metabolite production", "setting": "J3-BBa_J23117-mvaES", "value": ">40-fold"}, {"measurement": "Fold-change", "setting": "J3 promoter; J3-mRFP (integrated), dual reporters genomically-integrated, FIG. 15A", "value": "3-fold"}, {"measurement": "Fold-change", "setting": "J3 promoter; J3-mRFP (pBBR1-GmR), dual mRFP/sfGFP reporter plasmid-bourne, FIG. 13", "value": "41-fold"}, {"measurement": "activation of mRFP", "setting": "J3 promoter; just a single scRNA delivered, weak mRFP/strong sfGFP dual-reporter plasmid", "value": 15, "unit": "fold"}, {"measurement": "activation of mRFP", "setting": "J3 promoter; simultaneous CRISPRa/CRISPRi, dual-reporter plasmid with sfGFP-repressing sgRNA", "value": 6.6, "unit": "fold"}, {"measurement": "Fold-change, metabolite production", "setting": "J3-GTPCH, J3-PTPS, J3-SR", "value": "5-fold"}]}]}
